Test results: ChEMBL document CHEMBL1201862, “PubChem BioAssay data set” (2004)
Structures can show the parent of a compound that is named as a salt. Active and inactive are the calls of the source.

Tests used:
[1] = biological target: Luciferin 4-monooxygenase (Photinus pyralis, UniProt P08659); experiment: firefly luciferase enzyme inhibitors, dose response, biochemical, luminescence (AID 1891)
[2] = Luminescence Cell-Based Dose Confirmation HTS to Identify Inhibitors of Platelet Dense Granule Release. [Related pubchem assays: 1663 (Primary HTS), 1678 (Summary of Project)]; assay type: functional
Cytochrome P450 2C19 = Cytochrome P450 2C19 (Homo sapiens, UniProt P33261); experiment: Cytochrome panel assay with activity outcomes. Panel member name: p450-cyp2c19 Compounds with AC50 equal or less than 10 uM are considered active; assay type: functional
[3] = biological target: T1, Replicative DNA helicase DnaB (Mycobacterium tuberculosis, UniProt P9WMR3); experiment: DnaB intein splicing inhibitors, dose response, biochemical, cell-free fluorescence (AID 449749); assay type: functional
T1 sequence (P9WMR3 whole entry): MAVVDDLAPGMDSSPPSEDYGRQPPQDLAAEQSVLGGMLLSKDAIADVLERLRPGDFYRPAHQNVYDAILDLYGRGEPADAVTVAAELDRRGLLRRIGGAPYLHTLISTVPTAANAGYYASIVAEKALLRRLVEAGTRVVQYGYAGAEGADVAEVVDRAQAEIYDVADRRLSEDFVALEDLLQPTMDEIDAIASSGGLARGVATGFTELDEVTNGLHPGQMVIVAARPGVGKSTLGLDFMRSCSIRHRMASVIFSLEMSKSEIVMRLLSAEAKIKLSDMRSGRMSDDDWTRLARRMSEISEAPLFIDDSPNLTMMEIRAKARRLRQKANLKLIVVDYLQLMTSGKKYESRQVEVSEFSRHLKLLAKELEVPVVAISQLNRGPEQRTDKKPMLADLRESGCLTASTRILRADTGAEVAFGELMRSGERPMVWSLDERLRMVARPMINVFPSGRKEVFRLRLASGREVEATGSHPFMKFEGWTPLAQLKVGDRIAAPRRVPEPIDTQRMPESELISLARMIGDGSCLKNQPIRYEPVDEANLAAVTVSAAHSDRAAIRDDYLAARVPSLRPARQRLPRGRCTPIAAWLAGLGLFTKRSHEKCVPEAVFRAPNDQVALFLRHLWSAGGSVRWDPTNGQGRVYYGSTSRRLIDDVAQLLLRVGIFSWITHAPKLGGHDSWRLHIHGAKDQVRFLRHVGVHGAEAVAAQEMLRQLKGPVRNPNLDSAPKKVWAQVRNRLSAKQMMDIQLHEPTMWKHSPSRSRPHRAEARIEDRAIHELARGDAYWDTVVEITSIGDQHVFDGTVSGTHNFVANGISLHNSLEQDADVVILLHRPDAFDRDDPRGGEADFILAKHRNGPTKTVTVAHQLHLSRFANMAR

Protein RecA = biological target: T2, Protein RecA (Mycobacterium tuberculosis, UniProt P9WHJ3); experiment: Fluorescence Cell-Free Homogeneous Dose Retest to Identify Inhibitors of RecA-Intein Splicing Activity. [Related pubchem assays (depositor defined):AID2097, AID2223, AID489010, AID492950]; assay type: functional
T2 sequence (P9WHJ3 whole entry): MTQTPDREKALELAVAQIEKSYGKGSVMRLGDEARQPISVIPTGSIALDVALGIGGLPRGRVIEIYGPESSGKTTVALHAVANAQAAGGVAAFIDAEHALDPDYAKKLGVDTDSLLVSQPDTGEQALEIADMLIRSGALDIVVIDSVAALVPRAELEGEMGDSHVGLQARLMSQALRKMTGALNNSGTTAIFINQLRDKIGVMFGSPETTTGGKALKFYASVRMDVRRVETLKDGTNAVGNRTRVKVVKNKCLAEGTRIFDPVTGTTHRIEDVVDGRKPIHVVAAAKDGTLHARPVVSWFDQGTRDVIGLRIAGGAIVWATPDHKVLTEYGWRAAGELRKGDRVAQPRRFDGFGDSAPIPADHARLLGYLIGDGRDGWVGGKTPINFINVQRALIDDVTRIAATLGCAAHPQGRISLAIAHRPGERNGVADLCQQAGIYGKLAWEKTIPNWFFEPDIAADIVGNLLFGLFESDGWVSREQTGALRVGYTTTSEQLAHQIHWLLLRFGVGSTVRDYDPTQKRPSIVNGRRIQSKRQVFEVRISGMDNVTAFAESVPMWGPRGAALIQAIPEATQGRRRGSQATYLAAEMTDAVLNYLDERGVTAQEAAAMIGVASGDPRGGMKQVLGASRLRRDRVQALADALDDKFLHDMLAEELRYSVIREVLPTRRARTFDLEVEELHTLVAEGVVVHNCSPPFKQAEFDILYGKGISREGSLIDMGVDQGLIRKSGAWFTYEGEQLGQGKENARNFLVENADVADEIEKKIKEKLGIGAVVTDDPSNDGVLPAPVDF

Cytochrome P450 3A4 = Cytochrome P450 3A4 (Homo sapiens, UniProt P08684);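 further: CYP3A4 tested as one member of a cytochrome P450 panel screen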
[4] = Luminescence Cell-Based Dose Retest to Confirm Inhibitors of Cancer Stem Cells. [Related pubchem assays (depositor defined):AID2717, AID2721]; assay type: functional; conditions: Homo sapiens
Cytochrome P450 2C9 = Cytochrome P450 2C9 (Homo sapiens, UniProt P11712)
[5] = inhibitors of intracellular T. cruzi replication, confirmation, NIH3T3 host cells, beta-gal luminescence (AID 2044); assay type: functional, cell-based;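 further: intracellular parasites grown in NIH/3T3 mouse fibroblasts as host cells; luminescent beta-galactosidase reporter signal from transgenic T. cruzi replicating inside host cells; inhibitors lower the luminescence signal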
[6] = cytotoxicity toward NIH3T3 fibroblasts, dose response, counter-screen, cell-based, ATP luminescence, mouse fibroblasts (AID 2010); assay type: functional;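 further: cells exposed to compound for about 90 hours before reading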
[7] = HEp-2 cell cytotoxicity, dose response, cytotoxicity control for RSV inhibitor project, HTS (AID 2410); assay type: functional; conditions: human respiratory syncytial virus
INS1 = experiment: beta cell apoptosis inhibitors, cytokine rescue, dose response, luminescence, retest (AID 449756); assay type: functional, cell-based; conditions: Rattus norvegicus;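 further: cell death triggered by IL-1 beta plus TNF-alpha plus IFN-gamma mixture; protective hits raise ATP signal compared with cytokine alone wells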

Cytochrome P450 2C19, sequence (P33261 whole entry): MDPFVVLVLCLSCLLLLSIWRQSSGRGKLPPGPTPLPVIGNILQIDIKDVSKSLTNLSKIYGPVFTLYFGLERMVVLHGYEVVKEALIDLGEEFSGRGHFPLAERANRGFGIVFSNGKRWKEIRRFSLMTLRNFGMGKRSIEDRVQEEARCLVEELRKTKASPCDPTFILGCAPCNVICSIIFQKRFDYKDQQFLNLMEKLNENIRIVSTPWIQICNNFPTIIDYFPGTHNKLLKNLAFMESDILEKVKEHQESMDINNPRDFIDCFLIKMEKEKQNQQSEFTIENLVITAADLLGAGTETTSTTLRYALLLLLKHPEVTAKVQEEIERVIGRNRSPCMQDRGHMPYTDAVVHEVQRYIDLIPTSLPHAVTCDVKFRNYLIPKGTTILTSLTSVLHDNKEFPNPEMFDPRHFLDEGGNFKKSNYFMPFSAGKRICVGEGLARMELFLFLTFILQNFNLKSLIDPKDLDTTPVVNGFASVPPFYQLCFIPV
Cytochrome P450 2C9, sequence (P11712 whole entry): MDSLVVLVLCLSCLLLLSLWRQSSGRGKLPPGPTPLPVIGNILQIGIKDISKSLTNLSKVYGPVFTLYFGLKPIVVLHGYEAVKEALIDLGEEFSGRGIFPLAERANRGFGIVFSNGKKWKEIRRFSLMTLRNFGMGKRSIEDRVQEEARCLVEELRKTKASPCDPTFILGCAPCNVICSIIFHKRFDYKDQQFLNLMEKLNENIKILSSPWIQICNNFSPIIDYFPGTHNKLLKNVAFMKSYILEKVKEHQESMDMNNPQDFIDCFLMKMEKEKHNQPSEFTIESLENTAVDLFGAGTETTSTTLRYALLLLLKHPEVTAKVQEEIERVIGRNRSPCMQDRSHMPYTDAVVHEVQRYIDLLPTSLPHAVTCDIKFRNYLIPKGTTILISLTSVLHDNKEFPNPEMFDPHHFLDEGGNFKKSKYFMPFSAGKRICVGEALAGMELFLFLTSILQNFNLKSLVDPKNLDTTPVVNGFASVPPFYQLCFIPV
Cytochrome P450 3A4, sequence (P08684 whole entry): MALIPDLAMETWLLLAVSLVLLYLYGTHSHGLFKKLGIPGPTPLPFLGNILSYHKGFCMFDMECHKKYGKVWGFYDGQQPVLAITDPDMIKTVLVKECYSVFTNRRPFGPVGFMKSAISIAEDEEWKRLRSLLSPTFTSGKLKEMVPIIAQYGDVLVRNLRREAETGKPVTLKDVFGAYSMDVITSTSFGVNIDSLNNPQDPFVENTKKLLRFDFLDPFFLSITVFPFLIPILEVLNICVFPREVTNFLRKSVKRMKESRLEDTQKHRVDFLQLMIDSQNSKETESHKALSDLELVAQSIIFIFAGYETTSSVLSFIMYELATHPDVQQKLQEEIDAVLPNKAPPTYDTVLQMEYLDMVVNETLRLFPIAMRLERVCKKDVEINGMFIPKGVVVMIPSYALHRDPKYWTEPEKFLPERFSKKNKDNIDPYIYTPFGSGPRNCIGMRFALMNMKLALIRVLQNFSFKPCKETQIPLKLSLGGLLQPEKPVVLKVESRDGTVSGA
Luciferin 4-monooxygenase, sequence (P08659 whole entry): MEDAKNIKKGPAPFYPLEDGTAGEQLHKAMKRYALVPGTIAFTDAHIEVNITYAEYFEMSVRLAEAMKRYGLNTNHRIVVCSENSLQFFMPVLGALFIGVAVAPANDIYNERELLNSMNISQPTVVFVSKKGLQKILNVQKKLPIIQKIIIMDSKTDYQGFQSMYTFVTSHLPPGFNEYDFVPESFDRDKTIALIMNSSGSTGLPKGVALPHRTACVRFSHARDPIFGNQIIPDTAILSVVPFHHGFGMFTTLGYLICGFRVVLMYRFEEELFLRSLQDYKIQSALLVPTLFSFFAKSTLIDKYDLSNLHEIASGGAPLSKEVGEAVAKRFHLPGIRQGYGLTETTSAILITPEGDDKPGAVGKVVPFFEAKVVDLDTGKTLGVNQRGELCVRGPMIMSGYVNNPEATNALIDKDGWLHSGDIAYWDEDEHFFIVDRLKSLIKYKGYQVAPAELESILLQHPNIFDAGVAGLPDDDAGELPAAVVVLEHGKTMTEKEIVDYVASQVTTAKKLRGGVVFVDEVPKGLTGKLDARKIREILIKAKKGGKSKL

Nc1cc(-c2ccccc2)nn1Cc1ccc(Cl)cc1
EC50 [1]: > 112 µM (not active)
EC50 [2]: > 112 µM (not active)

Cc1ccc(C2CCN(C(=O)Nc3ccccc3)C2)cc1 (stereo not drawn)
EC50 [1]: > 112 µM (not active)
EC50 [2]: > 112 µM (not active)

COc1nc(C(=N)NO)nc(N2CCCCC2)n1
AC50 (Cytochrome P450 2C19; read-out: AC50): 39.8 µM (inconclusive)

COc1ccc(-c2[nH]nc3c2C(c2ccncc2)C(C#N)=C(N)O3)cc1 (stereo not drawn)
AC50 [3]: 8.02 µM (active)
EC50 (Protein RecA): 2.26 µM (active)

O=C(Nc1ccccc1C(=O)N/N=C/c1ccco1)c1ccc(Cl)cc1
EC50 [1]: 0.192 µM (active)
EC50 [2]: 10.9 µM (active)

CCC(C)OC(=O)C1=C(C)OC23OC(N)=C(C#N)C12C(=O)c1ccccc13 (stereo not drawn)
EC50 [1]: > 112 µM (not active)
EC50 [2]: > 112 µM (not active)

C#CCOc1ccc(OC)cc1C(c1c(C)n[nH]c1O)c1c(C)n[nH]c1O
AC50 [3]: 0.405 µM (active)
EC50 (Protein RecA): 0.187 µM (active)

CC(/C=C/c1ccco1)=N/NC(=O)c1ccccc1Cl
AC50 (Cytochrome P450 2C19; read-out: AC50): 39.8 µM (inconclusive)
AC50 (Cytochrome P450 3A4): 31.6 µM (inconclusive)

S=C(Nc1ccccc1Cl)N(CCCN1CCOCC1)Cc1ccco1
EC50 [1]: > 112 µM (not active)
EC50 [2]: > 112 µM (not active)

COC(=O)c1ccc(/C=C/c2c(-c3ccc(OC)cc3)oc3ccc(N4CCOCC4)cc23)cc1
AC50 [4]: 2 µM (active)

Cc1nc2cnc(Oc3ccccc3)nc2n(-c2ccccc2)c1=O
AC50 (Cytochrome P450 3A4): 25.1 µM (inconclusive)
AC50 (Cytochrome P450 2C9): 25.1 µM (inconclusive)

COCCN(C(=O)COC(=O)CCc1nc2ccccc2s1)c1c(N)n(Cc2ccccc2)c(=O)[nH]c1=O
EC50 [1]: > 112 µM (not active)
EC50 [2]: > 112 µM (not active)

CCOC(=O)c1c(NC(=O)CSc2nc3cc(C)ccc3[nH]2)sc2c1CC(C)(C)NC2(C)C
EC50 [5]: 0.855 µM (active)
EC50 [6]: 18.6 µM (active)
AC50 [4]: 7.46 µM (active)

FC(F)(F)c1nnc(-c2ccccc2)nc1Oc1ccc(Cl)cc1Cl
CC50 [7]: 31.4 µM (active)
AC50 [3]: 1.44 µM (active)
EC50 (Protein RecA): 0.481 µM (active)

C[C@H](CO)N1C[C@H](C)[C@H](CN(C)Cc2ccc(-c3ccccc3)cc2)Oc2ccc(NS(=O)(=O)c3ccccc3)cc2CC1=O
AC50 [4]: 5.07 µM (active)

Cc1cccc(/N=C2\C(Cl)=C(O)OC2OC(=O)c2ccco2)c1 (stereo not drawn)
AC50 [3]: 13.8 µM (active)
EC50 (Protein RecA): 12.9 µM (active)

Cc1cc(C)n(C(=O)c2cccc(S(=O)(=O)N3CCCCC3)c2)n1
EC50 [1]: > 112 µM (not active)
EC50 [2]: > 112 µM (not active)

CCOC(=O)C1CCCN(C(=O)C2CCN(S(=O)(=O)N3CCC4(CC3)OCCO4)CC2)C1 (stereo not drawn)
AC50 (Cytochrome P450 2C19; read-out: AC50): 35.5 µM (inconclusive)
AC50 (Cytochrome P450 3A4): 20 µM (inconclusive)

CC(C)C(=O)Nc1ccc(NC(=S)NC(=O)c2ccccc2F)cc1
EC50 [1]: > 112 µM (not active)
EC50 [2]: > 112 µM (not active)

Cc1ccc(S(=O)(=O)Nc2ccc(C(OC(=O)c3ccccc3[N+](=O)[O-])(C(F)(F)F)C(F)(F)F)cc2)cc1
AC50 [4]: 6.11 µM (active)
AC50 (INS1): 14.3 µM (active)

COCCSc1ccccc1C(=O)Nc1ccc2c(c1)OCO2
EC50 [1]: > 112 µM (not active)
EC50 [2]: > 112 µM (not active)

COc1cc2cc(CN(CCCO)S(=O)(=O)c3ccccc3Cl)c(O)nc2cc1OC
AC50 (Cytochrome P450 2C19; read-out: AC50): 39.8 µM (inconclusive)

Sc1nnc(-c2ccncc2)n1CC1CCCO1 (stereo not drawn)
AC50 (Cytochrome P450 2C19; read-out: AC50): 31.6 µM (inconclusive)
AC50 (Cytochrome P450 3A4): 22.4 µM (inconclusive)
AC50 (Cytochrome P450 2C9): 28.2 µM (inconclusive)

CCOC(=O)CN1C(=O)C(O)=C(C(C)=O)C1c1ccc(F)cc1 (stereo not drawn)
EC50 [1]: > 112 µM (not active)
EC50 [2]: > 112 µM (not active)

CCOc1ccc(/C=N/NC(=O)c2ccoc2C)cc1OC
EC50 [1]: 28.3 µM (active)
EC50 [2]: 6.04 µM (active)

Cn1cc(/C=N/n2cnc3sc4c(c3c2=O)CCCC4)c2ccccc21
AC50 (Cytochrome P450 3A4): 22.4 µM (inconclusive)
AC50 (Cytochrome P450 2C9): 39.8 µM (inconclusive)

COC(=O)[C@@]1(Cc2ccc(OC)cc2)[C@@H]2C(=CC(=O)[C@H]2CC(=O)C(=O)N(C)C)CN1C(=O)c1ccccc1
AC50 (Cytochrome P450 3A4): 2.51 µM (inconclusive)
AC50 (Cytochrome P450 2C9): 25.1 µM (inconclusive)

COC(=O)c1ccccc1Oc1cc(C(F)(F)F)nc(-c2ccccn2)n1
EC50 [1]: > 112 µM (not active)
EC50 [2]: > 112 µM (not active)

N=C1O[C@@H](c2c[nH]c3ccc(OCc4ccccc4)cc23)C(O)=C1O
AC50 (Cytochrome P450 2C19; read-out: AC50): 6.31 µM (inconclusive)
AC50 (Cytochrome P450 3A4): 3.16 µM (inconclusive)

O=C(Oc1ccc(N(C(=O)c2ccncc2)S(=O)(=O)c2ccc(Cl)cc2)cc1)c1ccncc1
AC50 [3]: 9.26 µM (active)
EC50 (Protein RecA): 16.4 µM (active)

O=C(/C=C/c1ccco1)NCC1OCCc2ccccc21 (stereo not drawn)
AC50 [4]: > 195 µM (inactive)

O=c1nc(-c2ccccc2)n(-c2ccccc2)c2ncccc12
AC50 (Cytochrome P450 2C19; read-out: AC50): 22.4 µM (inconclusive)

C[Se]C[C@@H](N)C(=O)O
AC50 (Cytochrome P450 2C19): inconclusive
AC50 (Cytochrome P450 3A4): 1.26 µM (inconclusive)

CCOC(=O)c1cn(-c2nc(-c3ccc(Cl)cc3)cs2)c2c(F)c(N3CC(C)OC(C)C3)c(F)cc2c1=O (stereo not drawn)
AC50 (Cytochrome P450 2C19; read-out: AC50): 17.8 µM (inconclusive)

CCc1[nH]nc2c1C(Cc1ccccc1)C(C#N)=C(N)O2 (stereo not drawn)
AC50 [3]: 22.3 µM (active)
EC50 (Protein RecA): 6.37 µM (active)

Cc1c(O)cccc1C(=O)N[C@@H](CSc1ccccc1)[C@H](O)CN1C[C@H]2CCCC[C@H]2C[C@H]1C(=O)NC(C)(C)C [NELFINAVIR MESYLATE]
AC50 [4]: 4.22 µM (active)

CCn1c(S)nnc1-c1ccoc1C
AC50 (Cytochrome P450 2C19; read-out: AC50): 28.2 µM (inconclusive)
AC50 (Cytochrome P450 2C9): 31.6 µM (inconclusive)

O=C(Nc1ccc(S(=O)(=O)NCc2ccco2)cc1)c1ccc(F)cc1
EC50 [1]: > 112 µM (not active)
EC50 [2]: > 112 µM (not active)

O=C(c1ccccc1NS(=O)(=O)c1cccc([N+](=O)[O-])c1)N1CCOCC1
AC50 (Cytochrome P450 3A4): 17.8 µM (inconclusive)
AC50 (Cytochrome P450 2C9): 7.94 µM (inconclusive)
